From US4411890A, “Synthetic peptides having pituitary growth hormone releasing activity” (Beckman Instruments, Inc., priority 1981, dated 1983)
Where a SMILES comes first, the peptide text is derived from it.

How the values were obtained:
pituitaries = experiment: In vitro growth hormone release study (incubated rat pituitaries, GH by RIA); format: cell-based; conditions: GH released at I3, I4 (I5) minus P2, mean ± SEM
Procedure: Female rats of the CD-1 strain were housed in a constant temperature room at 24° C. with 14 hours light and 10 hours darkness. The rats were fed Purina brand rat chow ab libitum. All studies were started between 0800 and 1000 hours.
Pituitaries were removed from 20 day old female rats. In each polytetrafluoroethylene beaker (10 ml) was incubated two pituitaries at 36° C. in 1 ml of lactated Ringer's solution in a Dubnoff Shaker (90 cycles/min.). All medium in each beaker was removed each hour (e.g., P1, P2, I3, I4, I5) and then fresh medium was added back to each beaker. Each medium removed was assayed for GH, in duplicate, by a standard radioimmunoassay (RIA).
The growth hormone agonist of Example 1 was not added to the incubation mediums employed during the first hour of the incubation period (P1) or to the incubation mediums employed during the second hour of the incubation period (P2). The growth hormone agonist of Example 1 was dissolved in dimethylsulfoxide (DMSO; 10:1, agonist:DMSO), added to each incubation medium employed during the third hour of the incubation period (I3), to each medium employed during the fourth hour of the incubation period (I4), and, when performed, to each medium employed during the fifth hour of the incubation period (I5). The release of growth hormone was recorded as ΔGH and calculated by subtracting the amount of GH released at P2 from that released at I3, I4, and, when performed, I5. The agonist activity was determined from the release at I3, I4, and, when performed, I5. The mean of the ΔGH values obtained from the three beakers per dosage level measured at I3, I4, and, when performed, I5 are set forth in Table VI.

[1] = test system: Female rats of The CD-1 strain; experiment: In vivo growth hormone release study (subcutaneous injection, serum GH by RIA); parameters: species or system rat; conditions: serum GH about 15 minutes after injection, 21 day old female rats, mean ± SEM
Procedure: Female rats of The CD-1 strain were housed in a constant temperature room at 24° C. with 14 hours light and 10 hours darkness. The rats were fed Purina brand rat chow ab libitum. All studies were started between 0800 and 1000 hours. Each female rat (21 days old; eight rats per dosage level shown in Table XXVI) was injected subcutaneously with a desired dosage of the peptide of Example 6. Approximately 15 minutes after injection, the rat was guillotined. A blood sample was collected from the guillotined rat. The blood sample was centrifuged and a serum sample was collected therefrom. Each serum sample was assayed for GH, in duplicate, by a standard radioimmunoassay (RIA).

[2] = dosage 1 ng/ml incubation medium
[3] = dosage 3 ng/ml incubation medium
[4] = dosage 10 ng/ml incubation medium
[5] = dosage 30 ng/ml incubation medium
[6] = dosage 1.0 μg/ml serum (so in the source)
[7] = dosage 3.0 μg/ml serum (so in the source)
[8] = dosage 10.0 μg/ml serum (so in the source)
[9] = dosage 30.0 μg/ml serum (so in the source)
[10] = dosage 0.3 μg/ml serum (so in the source)

Row | Molecule | ΔGH (pituitaries; [2]) | ΔGH (pituitaries; [3]) | ΔGH (pituitaries; [4]) | ΔGH (pituitaries; [5]) | ΔGH [1, 6] | ΔGH [1, 7] | ΔGH [1, 8] | ΔGH [1, 9] | ΔGH [1, 10] | ΔGH (pituitaries; dosage 100 ng/ml incubation medium)
1 | C[C@H](NC(=O)[C@@H](Cc1c[nH]c2ccccc12)NC(=O)[C@@H](N)Cc1c[nH]cn1)C(=O)N[C@@H](Cc1c[nH]c2ccccc12)C(=O)N[C@H](Cc1ccccc1)C(=O)N[C@@H](CCC(=O)O)C(N)=O [H2 -His-D-Trp-Ala-Trp-D-Phe-Glu-NH2] (HELM PEPTIDE1{H.[dW].A.W.[dF].E.[am]}$$$$V2.0) | -78 ± 72 ng/ml incubation medium | -294 ± 75 ng/ml incubation medium | -243 ± 71 ng/ml incubation medium | 117 ± 41 ng/ml incubation medium | 0.10 ± 0 ng/ml subcutaneous | 1.50 ± 0.56 ng/ml subcutaneous | 1.4 ± 0.78 ng/ml subcutaneous | 8.06 ± 2.68 ng/ml subcutaneous |  | 
2 | H2 -3-N-Me-His-D-Trp-Ala-Trp-D-Phe-Lys-NH2 | 165 ± 136 ng/ml incubation medium |  | 1,857 ± 254 ng/ml incubation medium |  |  |  | 128 ± 16 ng/ml subcutaneous |  | 45.0 ± 10 ng/ml subcutaneous | 
3 | H2 -His-D-Trp-Ala-Trp-D-Phe-Lys-OH | 467 ± 178 ng/ml incubation medium |  | 330 ± 167 ng/ml incubation medium |  |  | 76 ± 24 ng/ml subcutaneous | 119 ± 25 ng/ml subcutaneous | 226 ± 43 ng/ml subcutaneous |  | 2,441 ± 353 ng/ml incubation medium
4 | C[C@H](NC(=O)[C@@H](Cc1c[nH]c2ccccc12)NC(=O)[C@@H](N)Cc1c[nH]cn1)C(=O)N[C@@H](Cc1c[nH]c2ccccc12)C(=O)N[C@H](Cc1ccccc1)C(=O)N[C@@H](CCCCN)C(N)=O [H2 -His-D-Trp-Ala-Trp-D-Phe-Lys-NH2] (HELM PEPTIDE1{H.[dW].A.W.[dF].K.[am]}$$$$V2.0) | 955 ± 272 ng/ml incubation medium | 1,603 ± 305 ng/ml incubation medium | 2,244 ± 173 ng/ml incubation medium | 2,198 ± 358 ng/ml incubation medium | 36 ± 15 ng/ml subcutaneous | 66 ± 15 ng/ml subcutaneous | 100 ± 19 ng/ml subcutaneous | 122 ± 4 ng/ml subcutaneous | 6 ± 4 ng/ml subcutaneous | 
